Values of other authors as cited in EP3959200B1, “NEW TRIAZOLE AND TRIAZOLOTHIADIAZINE DERIVATIVES EXERTING CYTOTOXIC AND APOPTOTIC EFFECTS ON A549 CELLS THROUGH AKT INHIBITION” (Anadolu Universitesi, priority 2020, dated 2022).
Read-outs that look alike come from different tables or passages of the source.

Experiments:
[1] = system: human HCC (HepG2) cell line; settings: cited from earlier work
HCC rats = settings: cited from earlier work
[2] = system: human colon epithelial cells (HT-29); settings: cited from earlier work
[3] = system: human lung adenocarcinoma (A549); settings: cited from earlier work
[4] = system: breast adenocarcinoma (MCF-7); settings: cited from earlier work
[5] = system: ovarian carcinoma (SKOV3); settings: cited from earlier work
tubulin = tubulin polymerization; cited from earlier work
[6] = system: human breast cancer (MCF-7); settings: cited from earlier work
[7] = system: human cervical carcinoma (HeLa); settings: cited from earlier work
[8] = system: 60 cell lines derived from leukemia, non-small cell lung cancer, skin, ovarian, prostate and breast cancers; settings: all cancer types tested; cited from earlier work
Ehrlich acid tumor (EAC) = settings: 25 mg/kg, body weight; cited from earlier work
[9] = system: 60 cell lines derived from lung, colon, skin, kidney, ovarian, central nervous system and blood cancers; settings: all cells tested; cited from earlier work
K562 cells = settings: cited from earlier work
lung cancer (H157) cells = settings: cited from earlier work
[10] = system: kidney fibroblast (BHK-21) cells; settings: cited from earlier work
[11] = system: lung cancer (H-157) cell line; settings: cited from earlier work
colon carcinoma (HCT116) = settings: HCT116, MTT; read-out: LC50 (the source's name); cited from earlier work
[12] = system: breast adenocarcinoma (MCF-7); settings: MCF-7, MTT; read-out: LC50 (the source's name); cited from earlier work
[13] = system: human epithelial cervical carcinoma (HeLa) cells; settings: MTT; cited from earlier work
human lung cancer (A549) = settings: cited from earlier work
[14] = system: human hepatocellular carcinoma (HCC) cell line (HepG2); settings: HepG2, MTT; cited from earlier work
[15] = system: human gastric cancer (NUGC), human liver cancer (HA22T and HepG2), nasopharyngeal cancer (HONE1), human breast cancer (MCF); settings: all other cancer cells tested except DLD1 cells; cited from earlier work
[16] = system: normal fibroblast (WI38) cells; settings: cited from earlier work
[17] = system: leukemia (CCRF-CEM, RPMI-8226 and SR), non-small cell lung cancer (HOP-92), melanoma (UACC-62) and kidney cancer (UO-31) cells; settings: across CCRF-CEM, RPMI-8226, SR, HOP-92, UACC-62, UO-31; cited from earlier work
Huh7 cell line = settings: cited from earlier work
PC-3 cells = settings: cited from earlier work
A549 = settings: cited from earlier work
[18] = system: human breast cancer (MCF-7); settings: cited from earlier work; remark: listed apart in the source
[19] = system: kidney cancer (OU-31) cell line; set-up: concentration or dose not given beside the values; settings: cited from earlier work
[20] = system: leukemia (MOLT-4) cell line; settings: cited from earlier work
[21] = biological target: alkaline phosphatase (ALP) enzyme; settings: cited from earlier work
HCT116 cell line = settings: cited from earlier work
HeLa cell line = settings: cited from earlier work
PC-3 cell line = settings: cited from earlier work

Compound: O=C(CNNc1nnc2n1NC=C(c1ccccc1)S2)c1ccccc1 [1-phenyl-2-(2-(7-phenyl-5H-[1,2,4]triazolo[3,4-b][1,3,4]thiadiazine-3-yl)hydrazinyl)ethanone]
- IC50 [1]: 19.6 µM
- inhibition of hepatic tyrosine kinase (HTK) expression (HCC rats): 45%
- reduction of vascular endothelial growth factor (VEGF) level (HCC rats): 30%
- improvement of liver level of glutathione (GSH) (HCC rats; compared to the HCC group): 99%
- improvement of liver level of lipid peroxides (HCC rats; compared to the HCC group): 62%

Compound: CS(=O)(=O)c1ccc(Cc2nnc3n2N=C(c2ccccc2)CS3)cc1 [3-(4-(methylsulfonyl)benzyl)-6-phenyl-7H-[1,2,4]triazolo[3,4-b][1,3,4]thiadiazine]
- IC50 [2]: 25 µM

Compound: COc1cc(C2=Nn3c(nnc3-c3ccccc3)SC2)cc(OC)c1OC [3-phenyl-6-(3,4,5-trimethoxyphenyl)-7H-[1,2,4]triazolo[3,4-b][1,3,4]thiadiazine]
- IC50 [3]: 3.71 ± 0.13 µM
- IC50 [4]: 700 ± 40 nM
- IC50 [5]: 4630 ± 90 nM
- IC50 (tubulin): 1610 nM

Compound: COc1ccc(-n2nc(-c3nnc(SCCCO)n3-c3ccccc3)cc2-c2ccccc2)cc1 [3-((5-(1-(4-Methoxyphenyl)-5-phenyl-1H-pyrazole-3-yl)-4-phenyl-4H-1,2,4-triazole-3-yl)thio)propane-1-ol]
- IC50 [6]: 2720 nM
- IC50 [7]: 2.98 µM

Compound: Fc1cc(-c2nnc3n2N=C(c2ccc(Cl)cc2)CS3)c(Cl)cc1Cl [3-(2,4-Dichloro-5-fluorophenyl)-6-(4-chlorophenyl)-1,2,4-triazolo[3,4-b]-1,3,4-thiadiazine]
- GI50 [8]: 1.06 to 25.4 µM

Compound: Nn1c(S)nnc1-c1ccccc1Cl [4-amino-5-mercapto-3-(2-chlorophenyl)-1,2,4-triazole]
- tumor cell inhibition (TCI) (Ehrlich acid tumor (EAC)): 63.59%

Compound: Fc1cc(C2=Nn3c(COc4ccccc4Cl)nnc3SC2=Cc2ccc(Cl)cc2)c(Cl)cc1Cl [7-(4-chlorobenzylidene)-6-(2,4-dichloro-5-fluorophenyl)-3-((2-chlorophenoxy)methyl)-1,2,4-triazolo[3,4-b]-1,3,4-thiadiazine]
- GI50 [9]: < 10 µM

Compound: CC(=O)Nc1ccc(OCC2=NNC(SCC(=O)Nc3ccc(Br)cc3)N2Cc2ccccc2)cc1 (centres unmarked) [2-[(3-{[4-(acetylamino)phenoxy]methyl}-4-benzyl-4,5-dihydro-1H-1,2,4-triazole-5-yl)sulfanyl]-N-(4-bromophenyl)acetamide]
- IC50 (K562 cells): 7.71 µM

Compound: CC[C@]1(O)C[C@H]2CN(CCc3c([nH]c4ccccc34)[C@@](C(=O)OC)(c3cc4c(cc3OC)N(C=O)[C@H]3[C@@](O)(C(=O)OC)[C@H](OC(C)=O)[C@]5(CC)C=CCN6CC[C@]43[C@@H]65)C2)C1 [vincristine]
- IC50 (lung cancer (H157) cells): 1030 ± 40 nM
- inhibition [10]: 74.5%
- IC50 [11]: 1030 ± 40 nM

Compound: COc1cccc2c1C(=O)c1c(O)c3c(c(O)c1C2=O)C[C@@](O)(C(=O)CO)C[C@@H]3O[C@H]1C[C@H](N)[C@H](O)[C@H](C)O1 [doxorubicin]
- IC50 [7]: 8.72 µM
- CC50 (colon carcinoma (HCT116)): 37.7 µM
- CC50 [12]: 26.1 µM
- EC50 [13]: 2500 nM
- IC50 (human lung cancer (A549)): 4.52 µM
- IC50 [1]: 36.3 µM

Compound: S=c1[nH]nc(OCc2ccccc2)n1N=Cc1c[nH]nc1-c1ccc(Cl)cc1 [4-((3-(4-chlorophenyl)-1H-pyrazole-4-methylene)amino)-5-(benzyloxy)-2,4-dihydro-1,2,4-triazole-3-thione]
- IC50 [14]: 18 nM

Compound: c1ccc(C2=Nn3c(nnc3-c3ccncc3)SC2)cc1 [6-phenyl-3-(pyridine-4-yl)-7H-[1,2,4]triazolo[3,4-b][1,3,4]thiadiazine]
- IC50 [15]: < 800 nM
- IC50 [16]: > 10 µM

Compound: Cc1ccc(COc2nn(CN3CCOCC3)c(=S)n2N=Cc2c[nH]nc2-c2ccc(F)cc2)cc1 [4-((3-(4-fluorophenyl)-1H-pyrazole-4-methylene)amino)-2-(morpholinomethyl)-5-(4-methylbenzyloxy)-2,4-dihydro-1,2,4-triazole-3-thione]
- IC50 [14]: 34 nM

Compound: OC(c1ccccc1)c1nnc(SCc2ccccc2)n1Cc1ccccc1 (centres unmarked) [4-Benzyl-3-(benzylthio)-5-[hydroxy(phenyl)methyl]-4H-1,2,4-triazole]
- antiproliferative activity [17]: 25-58%

Compound: CCc1cccc2c3c([nH]c12)C(CC)(Cc1n[nH]c(=S)n1C)OCC3 (centres unmarked) [5-[(1,8-Diethyl-1,3,4,9-tetrahydropyrano[3,4-b]indole-1-yl)methyl]-4-methyl-2,4-dihydro-3H-1,2,4-triazole-3-thione]
- IC50 (Huh7 cell line): 4.29 µM

Compound: Cc1ccc(C(C)C)c(OCc2nnc(SCC(=O)Nc3ccc(S(N)(=O)=O)cc3)n2Cc2ccccc2)c1 [2-{ [3-[[5-Methyl-2-(propane-2-yl)phenoxy]methyl)-4-benzyl-4,5-dihydro-1H-1,2,4-triazole-5-yl]sulfanyl}-N-(4-sulfamoilphenyl)acetamide]
- IC50 (PC-3 cells): 5.96 µM

Compound: COc1cc(-c2nnc3n2N=C(c2ccc(Br)cc2)CS3)cc(OC)c1OC [6-(4-bromophenyl)-3-(3,4,5-trimethoxyphenyl)-7H-[1,2,4]triazolo[3,4-b][1,3,4]thiadiazine]
- IC50 [3]: 3.15 ± 0.01 µM
- IC50 [4]: 3340 ± 20 nM
- IC50 [5]: 300 ± 650 nM
- IC50 (tubulin): 1030 nM

Compound: Cc1ccc(C(C)C)c(OCC2=NNC(SCC(=O)Nc3ccc(Cl)cc3)N2Cc2ccccc2)c1 (centres unmarked) [2-{[3-[[5-methyl-2-(propane-2-yl)phenoxy]methyl]-4-benzyl-4,5-dihydro-1H-1,2,4-triazole-5-yl]sulfanyl}-N-(4-chlorophenyl)acetamide]
- IC50 (A549): 7.9 µM

Compound: Clc1ccc(C2=Nn3c(nnc3-c3cccnc3)SC2)cc1Cl [6-(3,4-dichlorophenyl)-3-(pyridine-3-yl)-7H-[1,2,4]triazolo[3,4-b][1,3,4]thiadiazine]
- IC50 (lung cancer (H157) cells): 960 ± 430 nM

Compound: CC(C)(c1ccc(Cl)cc1)c1nnc2n1N=C(c1ccc(OC(F)(F)F)cc1)CS2 [3-(2-(4-chlorophenyl)propane-2-yl)-6-(4-(trifluoromethoxy)phenyl)-7H-[1,2,4]triazolo[3,4-b] [1,3,4]thiadiazine]
- IC50 (human lung cancer (A549)): 18.2 µM
- IC50 [18]: 10.5 µM

Compound: O=C(CSc1nnc2n1N=C(c1ccc(Cl)cc1)CS2)c1ccc(F)cc1 [2-((6-(4-Chlorophenyl)-7H-[1,2,4]triazolo[3,4-b][1,3,4]thiadiazine-3-yl)thio-1-(4-fluorophenyl)ethanone]
- growth [19]: 48.14%
- growth [20]: 49.82%

Compound: O=c1oc2ccccc2cc1C1=Nn2c(nnc2-c2cc3ccccc3oc2=O)SC1 [3,3'-(7/7-[1,2,4]Triazolo[3,4-b][1,3,4]thiadiazine-3,6-diyl)-bis(2H-chromen-2-one)]
- IC50 [21]: 1150 ± 1000 nM

Compound: COc1cc(-c2nnc(SCC(=O)c3ccc(C)cc3)n2N)cc(OC)c1OC [2-(4-amino-5-(3,4,5-trimethoxyphenyl)-4H-1,2,4-triazole-3-ylthio)-1-(p-tolyl)ethanone]
- IC50 (HCT116 cell line): 0.37 µM
- IC50 (HeLa cell line): 2.94 µM
- IC50 (PC-3 cell line): 31.3 µM

Compound: CS(=O)(=O)c1ccc(Cc2nnc3n2N=C(c2ccc(-c4ccccc4)cc2)CS3)cc1 [6-(biphenyl-4-yl)-3-(4-(methylsulfonyl)benzyl)-7H-[1,2,4]triazolo[3,4-b][1,3,4]thiadiazine]
- IC50 [2]: 12.5 µM

Compound: O=c1[nH]cc(F)c(=O)[nH]1 [5-fluorouracil]
- IC50 (HCT116 cell line): 68.7 µM
- IC50 (HeLa cell line): 57.2 µM
- IC50 (PC-3 cell line): 57 µM
